Target: MAGL (Mus musculus (Mouse), UniProt O35678)
Assay: Mouse brain proteomes from inhibitor treated mice (oral gavage, sacrificed 4 h after administration, ABPP analysis)
Details: 5 mg/kg oral gavage
Description: Preparation of Mouse Brain Proteomes from Inhibitor Treated Mice.
Inhibitors were administered to wild-type C57Bl/6J by oral gavage in a vehicle of polyethylene glycol.

Sequence of MAGL (O35678 whole entry): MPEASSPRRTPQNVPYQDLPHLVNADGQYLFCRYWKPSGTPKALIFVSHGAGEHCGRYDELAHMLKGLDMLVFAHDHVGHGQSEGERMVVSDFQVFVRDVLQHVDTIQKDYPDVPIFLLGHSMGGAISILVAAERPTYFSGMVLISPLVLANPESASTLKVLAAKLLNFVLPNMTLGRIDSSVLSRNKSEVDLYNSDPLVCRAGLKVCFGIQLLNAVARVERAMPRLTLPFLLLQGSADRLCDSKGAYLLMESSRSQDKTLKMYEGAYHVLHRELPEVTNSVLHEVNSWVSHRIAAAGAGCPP

CN(Cc1cccc(C(F)(F)F)c1N1CCCC1)C1(C)CCN(C(=O)n2ccc(C(=O)O)n2)CC1 [Example 382, 1-(4-methyl-4-(methyl(2-(pyrrolidin-1-yl)-3-(trifluoromethyl)benzyl)amino)piper-idine-1-carbonyl)-1H-pyrazole-3-carboxylic acid]
MAGL % inh. 5 mg/kg (mouse): D (% inhibition is greater than or equal to 0% and less than 25%)

O=C(O)c1ccn(C(=O)N2C[C@H]3C[C@H](Oc4cc(Cl)cc(Cl)c4)C[C@H]3C2)n1 [Example 230, 1-(trans-5-(3,5-dichlorophenoxy)octahydrocyclo-penta[c]pyrrole-2-carbonyl)-1H-pyrazole-3-carboxylic acid]
MAGL % inh. 5 mg/kg (mouse): D (% inhibition is greater than or equal to 0% and less than 25%)

Cc1ccc(Oc2cccc(CN3CCN(C(=O)n4ccc(C(=O)O)n4)CC3)c2)cc1 [Example 251, 1-(4-(3-(p-tolyloxy)benzyl)piperazine-1-carbonyl)-1H-pyrazole-3-carboxylic acid]
MAGL % inh. 5 mg/kg (mouse): D (% inhibition is greater than or equal to 0% and less than 25%)

O=C(O)c1ccn(C(=O)N2CCC3(CCN(Cc4cc(Cl)cc(Cl)c4Cl)C3)CC2)n1 [Example 337, 1-(2-(2,3,5-trichlorobenzyl)-2,8-diazaspiro[4.5]decane-8-carbonyl)-1H-pyrazole-3-carboxylic acid]
MAGL % inh. 5 mg/kg (mouse): D (% inhibition is greater than or equal to 0% and less than 25%)

O=C(O)c1ccn(C(=O)N2CCC(Oc3ccc(C(F)(F)F)cc3N3CCCC3)CC2)n1 [Example 307, 1-(4-(2-(pyrrolidin-1-yl)-4-(trifluoromethyl)phenoxy)piperidine-1-carbonyl)-1H-pyrazole-3-carboxylic acid]
MAGL % inh. 5 mg/kg (mouse): D (% inhibition is greater than or equal to 0% and less than 25%)

NC(=O)c1ccn(C(=O)N2CC3CN(Cc4ccc(C5(C(=O)O)CCOCC5)cc4C(F)(F)F)CC3C2)n1 (centres unmarked) [Example 35, 4-(4-((5-(3-carbamoyl-1H-pyrazole-1-carbonyl)hexahydropyrrolo[3,4-c]pyrrol-2(1H)-yl)methyl)-3-(trifluoromethyl)phenyl)tetrahydro-2H-pyran-4-carboxylic acid]
MAGL % inh. 5 mg/kg (mouse): D (% inhibition is greater than or equal to 0% and less than 25%)

CN(Cc1ccc(C(F)(F)F)c(N2CCCC2)c1)C1(C)CCN(C(=O)n2ccc(C(=O)O)n2)CC1 [Example 385, 1-(4-methyl-4-(methyl(3-(pyrrolidin-1-yl)-4-(trifluoromethyl)benzyl)amino)piper-idine-1-carbonyl)-1H-pyrazole-3-carboxylic acid]
MAGL % inh. 5 mg/kg (mouse): D (% inhibition is greater than or equal to 0% and less than 25%)

C[C@@H]1CN(Cc2ccc(C(F)(F)F)cc2N2CCCC2)CCN1C(=O)n1ccc(C(=O)O)n1 [Example 327, (R)-1-(2-methyl-4-(2-(pyrrolidin-1-yl)-4-(trifluoromethyl)benzyl)piperazine-1-carbonyl)-1H-pyrazole-3-carboxylic acid]
MAGL % inh. 5 mg/kg (mouse): D (% inhibition is greater than or equal to 0% and less than 25%)

O=C(O)c1ccn(C(=O)N2CCC(Oc3cc(N4CCCC4)cc(C(F)(F)F)c3)CC2)n1 [Example 308, 1-(4-(3-(pyrrolidin-1-yl)-5-(trifluoromethyl)phenoxy)piperidine-1-carbonyl)-1H-pyrazole-3-carboxylic acid]
MAGL % inh. 5 mg/kg (mouse): D (% inhibition is greater than or equal to 0% and less than 25%)

Cc1cn(C(=O)N2C[C@H]3C[C@H](OCc4cc(F)cc(Cl)c4)C[C@H]3C2)nc1C(=O)O [Example 252, 1-(trans-5-((3-chloro-5-fluorobenzyl)oxy)octahydrocyclo-penta[c]pyrrole-2-carbonyl)-4-methyl-1H-pyrazole-3-carboxylic acid]
MAGL % inh. 5 mg/kg (mouse): D (% inhibition is greater than or equal to 0% and less than 25%)

CC(C)c1cccc(O[C@H]2C[C@@H]3CN(C(=O)n4ccc(C(=O)O)n4)C[C@@H]3C2)c1 [Example 220, 1-(trans-5-(3-isopropylphenoxy)ocatahydrocyclo-penta[c]pyrrole-2-carbonyl)-1H-pyrazole-3-carboxylic acid]
MAGL % inh. 5 mg/kg (mouse): C (% inhibition is greater than or equal to 25% and less than 50%)

Cc1cc(-c2ccccc2)ccc1CN1CCN(C(=O)n2ccc(C(=O)O)n2)[C@H](C)C1 [Example 245, (R)-1-(2-methyl-4-((3-methyl-[1,1′-biphenyl]-4-yl)methyl)piperazine-1-carbonyl)-1H-pyrazole-3-carboxylic acid]
MAGL % inh. 5 mg/kg (mouse): D (% inhibition is greater than or equal to 0% and less than 25%)

CN(Cc1cc(C(F)(F)F)ccc1N1CCCC1)C1(C)CCN(C(=O)n2ccc(C(=O)O)n2)CC1 [Example 384, 1-(4-methyl-4-(methyl(2-(pyrrolidin-1-yl)-5-(trifluoromethyl)benzyl)amino)piper-idine-1-carbonyl)-1H-pyrazole-3-carboxylic acid]
MAGL % inh. 5 mg/kg (mouse): D (% inhibition is greater than or equal to 0% and less than 25%)

C[C@@H]1C[C@H](N(C)Cc2cccc(C(F)(F)F)c2)CCN1C(=O)n1ccc(C(N)=O)n1 [Example 257, 1-((2R,4R)-2-methyl-4-(methyl(3-(trifluoromethyl)benzyl)amino)piperidine-1-carbonyl)-1H-pyrazole-3-carboxamide]
MAGL % inh. 5 mg/kg (mouse): A (% inhibition is greater than or equal to 75%)

C[C@@H]1CN(Cc2ccc(C(F)(F)F)cc2N2C3CCC2COC3)CCN1C(=O)n1ccc(C(=O)O)n1 [Example 393, 1-((2R)-4-(2-(3-oxa-8-azabicyclo[3.2.1]octan-8-yl)-4-(trifluoromethyl)benzyl)-2-methylpiperazine-1-carbonyl)-1H-pyrazole-3-carboxylic acid]
MAGL % inh. 5 mg/kg (mouse): D (% inhibition is greater than or equal to 0% and less than 25%)

O=C(O)c1ccn(C(=O)N2C[C@H]3C[C@H](Oc4cccc(-c5cccnc5)c4)C[C@H]3C2)n1 [Example 241, 1-(trans-5-(3-(pyridin-3-yl)phenoxy)octa-hydrocyclopenta-[c]pyrrole-2-carbonyl)-1H-pyrazole-3-carboxylic acid]
MAGL % inh. 5 mg/kg (mouse): D (% inhibition is greater than or equal to 0% and less than 25%)

C[C@@H]1CN(Cc2ccc(-c3ccccc3)cc2Cl)CCN1C(=O)n1ccc(C(=O)O)n1 [Example 291, (R)-1-(4-((3-chloro-[1,1′-biphenyl]-4-yl)methyl)-2-methylpiperazine-1-carbonyl)-1H-pyrazole-3-carboxylic acid]
MAGL % inh. 5 mg/kg (mouse): C (% inhibition is greater than or equal to 25% and less than 50%)

C[C@H]1CN(Cc2ccc(C(F)(F)F)cc2N2CCCC2)CCN1C(=O)n1ccc(C(=O)O)n1 [Example 328, (S)-1-(2-methyl-4-(2-(pyrrolidin-1-yl)-4-(trifluoromethyl)benzyl)piperazine-1-carbonyl)-1H-pyrazole-3-carboxylic acid]
MAGL % inh. 5 mg/kg (mouse): D (% inhibition is greater than or equal to 0% and less than 25%)

O=C(O)c1nn(C(=O)N2CCC3(CCN(Cc4cccc(Cl)c4C(F)(F)F)C3)CC2)cc1Cl [Example 26, 4-Chloro-1-(2-(3-chloro-2-(trifluoromethyl)benzyl)-2,8-diazaspiro[4.5]decane-8-carbonyl)-1H-pyrazole-3-carboxylic Acid]
MAGL % inh. 5 mg/kg (mouse): D (% inhibition is greater than or equal to 0% and less than 25%)

C[C@H]1CN(Cc2cc(F)cc(Oc3ccc(Cl)cc3)c2)CCN1C(=O)n1ccc(C(=O)O)n1 [Example 347, (S)-1-(4-(3-(4-chlorophenoxy)-5-fluorobenzyl)-2-methylpiperazine-1-carbonyl)-1H-pyrazole-3-carboxylic acid]
MAGL % inh. 5 mg/kg (mouse): D (% inhibition is greater than or equal to 0% and less than 25%)

C[C@H]1CN(Cc2cccc(Oc3ccc(Cl)cc3)c2)CCN1C(=O)n1ccc(C(=O)O)n1 [Example 311, (S)-1-(4-(3-(4-chlorophenoxy)benzyl)-2-methylpiperazine-1-carbonyl)-1H-pyrazole-3-carboxylic acid]
MAGL % inh. 5 mg/kg (mouse): D (% inhibition is greater than or equal to 0% and less than 25%)

C[C@@H]1CC[C@@H](C)N1c1cc(C(F)(F)F)ccc1CN1CCN(C(=O)n2ccc(C(=O)O)n2)CC1 [Example 359, 1-(4-(2-((2R,5R)-2,5-dimethylpyrrolidin-1-yl)-4-(trifluoromethyl)benzyl)piperazine-1-carbonyl)-1H-pyrazole-3-carboxylic acid]
MAGL % inh. 5 mg/kg (mouse): D (% inhibition is greater than or equal to 0% and less than 25%)

CN(Cc1cc(N2CCCC2)cc(C(F)(F)F)c1)C1(C)CCN(C(=O)n2ccc(C(=O)O)n2)CC1 [Example 381, 1-(4-methyl-4-(methyl(3-(pyrrolidin-1-yl)-5-(trifluoromethyl)benzyl)amino)piper-idine-1-carbonyl)-1H-pyrazole-3-carboxylic acid]
MAGL % inh. 5 mg/kg (mouse): D (% inhibition is greater than or equal to 0% and less than 25%)

C[C@@H]1C[C@@H](N(C)Cc2cccc(C(F)(F)F)c2)CCN1C(=O)n1ccc(C(N)=O)n1 [Example 260, 1-((2R,4S)-2-methyl-4-(methyl(3-(trifluoromethyl)benzyl)amino)piperidine-1-carbonyl)-1H-pyrazole-3-carboxamide]
MAGL % inh. 5 mg/kg (mouse): A (% inhibition is greater than or equal to 75%)

O=C(O)c1nn(C(=O)N2CCC3(CCN(Cc4cc(Cl)cc(C(F)(F)F)c4)C3)CC2)cc1Cl [Example 388, 4-chloro-1-(2-(3-chloro-5-(trifluoromethyl)benzyl)-2,8-diazaspiro[4.5]decane-8-carbonyl)-1H-pyrazole-3-carboxylic acid]
MAGL % inh. 5 mg/kg (mouse): D (% inhibition is greater than or equal to 0% and less than 25%)

C[C@H]1CC[C@H](C)N1c1cc(C(F)(F)F)ccc1CN1CCN(C(=O)n2ccc(C(=O)O)n2)CC1 [Example 360, 1-(4-(2-((2S,5S)-2,5-dimethylpyrrolidin-1-yl)-4-(trifluoromethyl)benzyl)piperazine-1-carbonyl)-1H-pyrazole-3-carboxylic acid]
MAGL % inh. 5 mg/kg (mouse): D (% inhibition is greater than or equal to 0% and less than 25%)

From patent US11655217B2, “Pyrazole MAGL inhibitors” (H. Lundbeck A/S, priority 2017, dated 2023)
